Laboratory results published in patent US8580793B2, “Use of kinase inhibitor for the treatment of thymoma” (Nerviano Medical Services S.r.l., priority 2009, dated 2013).

System: thymic carcinoma
Test: Phase I clinical trial, objective tumor response in thymic carcinoma patients (RECIST)
Type: in vivo, human
Details: 150 mg daily; for decrease in the sum of target lesions compared to baseline: patient; for tumor response as per RECIST criteria: thymic carcinoma patient, 4 days on/3 days off for 3 weeks in 4-week cycle
Excerpt: An objective tumor response was obtained in a patient, first diagnosed with thymic carcinoma in May 2002 and having had their third progression of disease with metastases to lung in July 2007, entered the phase I clinical trial in September 2007. […] The patient, prior to be treated in the clinical trial, received other treatments for their thymic carcinoma, as follows: from January 2005 to June 2005: Adriamycin®, Cytoxan®, Cisplatin; from February 2006 to May 2006: Ifosfamide; from October 2006 to June 2007: Taxol®, Carboplatin; from June 2007 to July 2007: Adriamycin®, Cytoxan®, Vincristine. The patient had also surgery in May 2002 and radiotherapy in July 2002 and July 2006.
Another objective tumor response was obtained in a patient, first diagnosed with thymic carcinoma in May 2006, becoming metastatic to lung, bones and peritoneum in October 2007. The patient started treatment in the phase I clinical trial in December 2008. […] The patient, prior to be treated in the clinical trial, received one line of chemotherapy (cisplatin/gemcitabine) from November 2007 to March 2008; they had surgery in May 2006 and radiotherapy in September 2006.

CNC(=O)c1nn(C)c2c1C(C)(C)Cc1cnc(Nc3ccc(N4CCN(C)CC4)cc3)nc1-2 [compound of formula (I), 8-[4-(4-methyl-piperazin-1-yl)-phenylamino]-1,4,4-trimethyl-4,5-dihydro-1H-pyrazolo[4,3-h]quinazoline-3-carboxylic acid methylamide]
decrease in the sum of target lesions compared to baseline (PR confirmed one month later): 40%
decrease in the sum of target lesions compared to baseline (after 6 cycles): 30%
decrease in the sum of target lesions compared to baseline (after 10 cycles): 31.2%
decrease in the sum of target lesions compared to baseline (documented until cycle 13): 37.6%
tumor response as per RECIST criteria (after 6 cycles): partial tumor response (PR)
tumor response as per RECIST criteria (after 10 cycles): partial tumor response (PR)
